Experimental data from article PMC7318308, “A Novel Synthetic Dual Agonistic Liposomal TLR4/7 Adjuvant Promotes Broad Immune Responses in an Influenza Vaccine With Minimal Reactogenicity” (Frontiers in Immunology, 2020).

How the values were obtained:
mouse TLR4 = target: T1, mouse TLR4 (Mus musculus, UniProt Q9JHF9+Q9QUK6); test: TLR4/NF-κB reporter cell assay (SEAP), HEK-Blue mTLR4; assay type: cell-based; conditions: for murine TLR4 agonistic activity (in words): AUC normalized to 2B110 as 100%, Figure 1C
T1 construct: host or cells: HEK-Blue mTLR4 (HEK293-derived NF-κB/SEAP reporter cells)
T1 sequence (Q9QUK6 26-835): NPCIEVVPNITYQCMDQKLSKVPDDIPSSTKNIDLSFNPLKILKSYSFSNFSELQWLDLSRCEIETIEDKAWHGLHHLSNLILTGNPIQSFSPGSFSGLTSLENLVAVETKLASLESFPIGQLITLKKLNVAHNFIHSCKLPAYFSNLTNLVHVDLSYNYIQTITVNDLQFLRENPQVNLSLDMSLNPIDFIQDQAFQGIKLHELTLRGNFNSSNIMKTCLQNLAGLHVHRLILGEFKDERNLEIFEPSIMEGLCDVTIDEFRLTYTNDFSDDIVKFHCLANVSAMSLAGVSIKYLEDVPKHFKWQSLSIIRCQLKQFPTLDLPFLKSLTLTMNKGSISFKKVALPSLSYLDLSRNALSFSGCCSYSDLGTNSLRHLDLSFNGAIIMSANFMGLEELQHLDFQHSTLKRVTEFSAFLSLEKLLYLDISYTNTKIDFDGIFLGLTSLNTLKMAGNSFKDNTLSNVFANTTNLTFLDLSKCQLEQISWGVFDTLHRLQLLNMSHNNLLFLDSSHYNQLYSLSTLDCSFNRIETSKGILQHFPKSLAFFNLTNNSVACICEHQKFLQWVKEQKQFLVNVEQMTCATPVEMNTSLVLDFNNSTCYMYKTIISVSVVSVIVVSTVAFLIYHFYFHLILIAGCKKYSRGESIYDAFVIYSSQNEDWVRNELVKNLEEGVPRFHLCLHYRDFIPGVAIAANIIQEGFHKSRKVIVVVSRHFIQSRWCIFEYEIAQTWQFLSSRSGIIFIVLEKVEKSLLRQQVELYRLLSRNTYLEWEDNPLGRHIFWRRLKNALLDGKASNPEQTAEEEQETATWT
T1 sequence (Q9JHF9 19-160): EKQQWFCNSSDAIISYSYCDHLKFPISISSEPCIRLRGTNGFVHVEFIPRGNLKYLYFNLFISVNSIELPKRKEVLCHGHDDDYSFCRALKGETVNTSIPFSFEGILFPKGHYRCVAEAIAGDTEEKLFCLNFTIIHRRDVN
Procedure: (§1) Figure 1 Structure-activity relationship studies in TLR4 agonistic pyrimidoindoles. (A) Syntheses of C8-alkynyl and C8-alkyl analogs. (B) Syntheses of C8-aryl analogs. (C) Scatter plot of hTLR4 and mTLR4 agonistic activity in TLR4-NF-κB HEK reporter cells (HEK-Blue™ hTLR4 and HEK-Blue™ mTLR4, respectively). NF-κB inducible NF-κB SEAP levels in culture supernatants were measured according to manufacturer's protocol. The TLR4 agonistic potency was evaluated as area under the curve (AUC) calculated for dose response curve using 2-fold serial dilutions from 10 μM, and normalized to the AUC for 2B110 as 100% on both axes. […] The color of each point is based on cell viability in TLR4-NF-κB reporter cells for compounds evaluated at 5 μM concentration. Viability data was normalized to vehicle control (Vehicle OD570−650 = 0.58 ± 0.01). (D) Structures of the lead compounds with differences at C8 substitution highlighted in blue.
(§2) Titration curves of 1Z105 and derivatives were used to assess their potency in stimulating human and mouse TLR4 response using HEK NF-κB reporter cells (HEK-Blue™ hTLR4 and mTLR4, respectively). The areas under the curve for dose response curves relative to vehicle (0.5% DMSO) were normalized to the greatest activity as 100% of 2B110 for both assays (Figure 1C). The compounds were also tested for in vitro toxicity by MTT assay (Figure 1C, Supplementary Figure 1).
(§3) TLR4/NF-κB activation was assessed using HEK-Blue™ hTLR4 and HEK-Blue™ mTLR4 (InvivoGen). The cells were treated with 1Z105 and 2B182C (2-fold serial dilutions starting from 10 μM) for 20 h. NF-κB inducible secreted embryonic alkaline phosphatase (SEAP) protein in the culture supernatant was measured according to manufacturer's protocol. To evaluate cell viability, 0.5 mg/mL 3-[4,5-dimethylthiazol-2-yl]-2,5-dipheyl tetrazolium bromide (MTT, Thermo Fisher Scientific) solution was added to each well and incubated at 37°C. Six hours later, formazan crystals were lysed with lysis buffer (15% SDS and 0.12% 12 N HCl) and the absorbance was measured at 570 nm using 650 nm as a reference with a plate reader (Tecan, Switzerland).

human TLR4 = target: T2, human TLR4 (Homo sapiens, UniProt O00206+Q9Y6Y9); test: TLR4/NF-κB reporter cell assay (SEAP), HEK-Blue hTLR4; assay type: cell-based; conditions: for human TLR4 agonistic activity (in words): AUC normalized to 2B110 as 100%, Figure 1C
T2 construct: host or cells: HEK-Blue hTLR4 (HEK293-derived NF-κB/SEAP reporter cells)
T2 sequence (O00206 24-839): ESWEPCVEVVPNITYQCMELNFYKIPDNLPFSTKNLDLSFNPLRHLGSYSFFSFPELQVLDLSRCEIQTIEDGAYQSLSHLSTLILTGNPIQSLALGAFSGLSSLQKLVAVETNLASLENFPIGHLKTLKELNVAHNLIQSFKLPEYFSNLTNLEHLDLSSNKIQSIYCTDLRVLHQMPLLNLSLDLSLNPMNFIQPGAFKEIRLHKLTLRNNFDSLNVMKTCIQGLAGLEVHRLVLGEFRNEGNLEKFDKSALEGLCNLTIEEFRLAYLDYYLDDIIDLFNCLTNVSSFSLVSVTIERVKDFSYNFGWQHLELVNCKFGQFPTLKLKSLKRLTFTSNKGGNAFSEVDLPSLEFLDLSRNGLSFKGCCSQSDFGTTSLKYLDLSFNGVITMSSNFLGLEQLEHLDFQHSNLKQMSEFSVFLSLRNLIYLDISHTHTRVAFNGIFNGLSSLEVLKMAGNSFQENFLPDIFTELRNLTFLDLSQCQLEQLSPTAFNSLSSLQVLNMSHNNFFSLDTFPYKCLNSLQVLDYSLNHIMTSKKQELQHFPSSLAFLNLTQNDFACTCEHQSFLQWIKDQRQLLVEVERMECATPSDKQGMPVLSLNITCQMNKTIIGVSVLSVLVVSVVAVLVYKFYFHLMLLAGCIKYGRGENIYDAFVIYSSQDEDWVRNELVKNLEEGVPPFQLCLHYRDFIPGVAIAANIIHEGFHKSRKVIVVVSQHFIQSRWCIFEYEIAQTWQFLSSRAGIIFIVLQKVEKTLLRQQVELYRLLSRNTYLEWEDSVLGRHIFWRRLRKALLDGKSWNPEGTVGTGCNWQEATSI
T2 sequence (Q9Y6Y9 17-160 limits assumed): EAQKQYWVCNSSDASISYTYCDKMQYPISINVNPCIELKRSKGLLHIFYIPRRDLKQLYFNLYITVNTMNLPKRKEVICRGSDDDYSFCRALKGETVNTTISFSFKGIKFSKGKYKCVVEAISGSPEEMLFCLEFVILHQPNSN
Procedure: as §1, §2, §3

TLR4 = TLR4 activity in HEK NF-κB reporter cells, species not told apart in the text; assay type: cell-based, human and mouse; conditions: HEK-Blue hTLR4 and mTLR4, Figure 1C
Procedure: as §1, §2, §3

[1] = system: TLR4-NF-κB reporter cells; test: MTT cell viability in TLR4-NF-κB reporter cells; assay type: cell-based; conditions: for toxicity in cell-based MTT assay (in words): viability at 5 μM in Figure 1C, normalized to vehicle
Procedure: as §1, §3

[2] = system: HEK-Blue mTLR4 reporter cells; test: MTT cell viability, murine TLR4 reporter cells; assay type: cell-based; conditions: concentrations below 10 µM, MTT
Procedure: as §3
Human TLR4 reporter cells Murine TLR4 reporter cells
[Compound] 1 μM 10 [Compound] 1 μM 10
Supplementary Figure 1. Dose response curves for cell viability (toxicity) of lead compounds in human and murine TLR4-NF-κB reporter cells. Cellular toxicity evaluated by MTT assay is presented as % viability normalized to vehicle (0.5% DMSO) as 100%. While 1Z105 had minimal toxicity in both hTLR4 and mTLR4 reporter cells (HEK-BlueTM hTLR4 and HEK-BlueTM mTLR4, […]
(also on this page, place not known: %Relative (Normalized 100%) 101101 viability vehicle as to)

[3] = 2-fold serial dilutions from 10 μM, the value taken as 100% for normalisation

Compound | murine TLR4 agonistic activity (in words) (mouse TLR4) | human TLR4 agonistic activity (in words) (human TLR4) | TLR4 activity (species not told apart) (TLR4) | further results
Cn1c2ccc(-c3cccc([N+](=O)[O-])c3)cc2c2nc(SCC(=O)NC3CCCCC3)n(-c3ccccc3)c(=O)c21 [8o] | retained murine TLR4 activity | less potent than 2B110 |  | 
CCc1ccc(-c2ccc3c(c2)c2nc(SCC(=O)NC4CCCCC4)n(-c4ccccc4)c(=O)c2n3C)cc1 [8d] |  |  | maintaining TLR4 activity | toxicity in cell-based MTT assay (in words) [1]: relatively high toxicity
Cn1c2ccc(-c3cccc(C(=O)O)c3)cc2c2nc(SCC(=O)NC3CCCCC3)n(-c3ccccc3)c(=O)c21 [8l] | significant loss | significant loss |  | 
CCCC#Cc1ccc2c(c1)c1nc(SCC(=O)NC3CCCCC3)n(-c3ccccc3)c(=O)c1n2C [6b] |  |  | highest level of TLR4 activation | 
Cn1c2ccc(-c3cccc(N)c3)cc2c2nc(SCC(=O)NC3CCCCC3)n(-c3ccccc3)c(=O)c21 [8k] | significant loss | significant loss |  | 
Cn1c2ccc(-c3cccc(O)c3)cc2c2nc(SCC(=O)NC3CCCCC3)n(-c3ccccc3)c(=O)c21 [8m] | significant loss | significant loss |  | 
Cn1c2ccc(-c3cccc(-c4ccccc4)c3)cc2c2nc(SCC(=O)NC3CCCCC3)n(-c3ccccc3)c(=O)c21 [8f] |  | dramatic loss of human TLR4 activity |  | 
Cn1c2ccc(-c3ccccc3)cc2c2nc(SCC(=O)NC3CCCCC3)n(-c3ccccc3)c(=O)c21 [2B110] | high TLR4 stimulatory potency | high TLR4 stimulatory potency |  | AUC of dose response curve, mTLR4 reporter cells (mouse TLR4; [3]): 28.43 ± 5.49 units; toxicity at 10 µM (in words) ([1]; 10 µM, MTT, Supplementary Figure 1): exhibited toxicity; toxicity in cell-based MTT assay (in words) [1]: slightly higher toxicity in MTT assays than did 2B182C; toxicity at lower concentrations, mTLR4 reporter cells (in words) [2]: more toxic compared to 8s; AUC of dose response curve, hTLR4 reporter cells (human TLR4; [3]): 14.95 ± 1.95
CCCCc1ccc(-c2ccc3c(c2)c2nc(SCC(=O)NC4CCCCC4)n(-c4ccccc4)c(=O)c2n3C)cc1 [8e] |  |  | maintaining TLR4 activity | toxicity in cell-based MTT assay (in words) [1]: relatively high toxicity
CCCCCCCCCCC#Cc1ccc2c(c1)c1nc(SCC(=O)NC3CCCCC3)n(-c3ccccc3)c(=O)c1n2C [6d] |  |  | completely inactive | 
CCCCCC#Cc1ccc2c(c1)c1nc(SCC(=O)NC3CCCCC3)n(-c3ccccc3)c(=O)c1n2C [6c] |  |  | reduction in TLR4 activity | 
C#Cc1ccc2c(c1)c1nc(SCC(=O)NC3CCCCC3)n(-c3ccccc3)c(=O)c1n2C [6a] |  |  | reduction in TLR4 activity | 
Cn1c2ccc(-c3cccc(C#N)c3)cc2c2nc(SCC(=O)NC3CCCCC3)n(-c3ccccc3)c(=O)c21 [8n] | retained murine TLR4 activity | less potent than 2B110 |  | 
COc1cccc(-c2ccc3c(c2)c2nc(SCC(=O)NC4CCCCC4)n(-c4ccccc4)c(=O)c2n3C)c1 [8h] |  | dramatic loss of human TLR4 activity |  | 
